Measured values as given in US11000033B2, “Ketone or oxime compound, and herbicide” (NISSAN CHEMICAL CORPORATION, priority 2014, dated 2021).

Key:
Type in all cases: in vivo
Leptochloa chinensis = test: Test Example 3: herbicidal effect by foliage application, Wagner pot (symbol D); settings: application herbicide amount 320 g/ha
Procedure, shortened: (§1)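 Foliar spray of water-diluted emulsion formulation at a predetermined herbicide amount onto 14-day-old plants in flooded alluvial soil (water depth 0.1–0.5 cm), greenhouse 25–30 °C; rice sown alongside. Scored 3 wk post-application on set criteria.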

Galium spurium = test: Test Example 5: herbicidal effect by foliage application, plastic box (symbol Q); settings: 320 g/ha, 3 weeks after application
Procedure, shortened: (§2)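 Effect is rated 3 weeks after a foliar spray of water-diluted emulsion concentrate at a predetermined herbicide amount. Plants had grown 14 days in a 25° C. to 30° C. greenhouse from seed in sterilized diluvial soil.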

beet = test: Test Example 4: effect on crop by soil treatment (symbol f); settings: 320 g/ha
Procedure, shortened: (§3)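 Steps: fill box with sterilized diluvial soil; sow seed spot-like; cover with ~1.5 cm soil; grow in greenhouse (25° C. to 30° C.).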

Amaranthus retroflexus = test: Test Example 4: herbicidal effect by soil treatment (symbol N); settings: 320 g/ha
Procedure, shortened: (§4)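 Seeds were sown in sterilized diluvial soil, covered with about 1.5 cm of soil, and the soil surface was sprayed with a water-diluted emulsion of the compound at a predetermined rate. Plants grew in a greenhouse at 25° C. to 30° C.; effects were scored visually 3 weeks after application.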

Scirpus juncoides = test: Test Example 1: herbicidal activity, application before weed generation in submerged conditions (symbol B); settings: application herbicide amount 320 g/ha
Procedure, shortened: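 0–5 visual score, 3 wk post-application. Submerged pots, alluvial soil, water 4 cm; seeds sown mixed, rice at 2.5 leaves transplanted. Emulsion diluted to predetermined dose, applied to water surface at sowing. 25–30 °C greenhouse.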

soybean = test: Test Example 5: effect on crop by foliage application, plastic box (symbol d); settings: 320 g/ha, 3 weeks after application
Procedure, shortened: (§5)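 Sterilized diluvial soil, plastic box (21 × 13 × 7 cm); spot sowing, ~1.5 cm soil cover; greenhouse 25–30° C.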

[1] = tested on: Echinochloa crus-galli var. crus-galli; test: Test Example 4: herbicidal effect by soil treatment (symbol H); settings: 320 g/ha
Procedure, shortened: as §4

Stellaria media = test: Test Example 5: herbicidal effect by foliage application, plastic box (symbol P); settings: 320 g/ha, 3 weeks after application
Procedure, shortened: as §2

Abutilon theophrasti = test: Test Example 5: herbicidal effect by foliage application, plastic box (symbol M); settings: 320 g/ha, 3 weeks after application
Procedure, shortened: as §2

Veronica persica = test: Test Example 5: herbicidal effect by foliage application, plastic box (symbol R); settings: 320 g/ha, 3 weeks after application
Procedure, shortened: as §2

Chenopodium album [2] = test: Test Example 5: herbicidal effect by foliage application, plastic box (symbol O); settings: 320 g/ha, 3 weeks after application
Procedure, shortened: as §2

rice plant = test: Test Example 5: effect on crop by foliage application, plastic box (symbol b); settings: 320 g/ha, 3 weeks after application
Procedure, shortened: as §5

Lolium multiflorum Lam. = test: Test Example 4: herbicidal effect by soil treatment (symbol K); settings: 320 g/ha
Procedure, shortened: as §4

rice = test: Test Example 4: effect on crop by soil treatment (symbol b); settings: 320 g/ha
Procedure, shortened: as §3

Digitaria ciliaris = test: Test Example 4: herbicidal effect by soil treatment (symbol F); settings: 320 g/ha
Procedure, shortened: as §4

Alopecurus myosuroides = test: Test Example 5: herbicidal effect by foliage application, plastic box (symbol J); settings: 320 g/ha, 3 weeks after application
Procedure, shortened: as §2

Cyperus difformis = test: Test Example 3: herbicidal effect by foliage application, Wagner pot (symbol E); settings: application herbicide amount 320 g/ha
Procedure, shortened: as §1

Chenopodium album [3] = test: Test Example 4: herbicidal effect by soil treatment (symbol O); settings: 320 g/ha
Procedure, shortened: as §4

Setaria viridis = test: Test Example 5: herbicidal effect by foliage application, plastic box (symbol G); settings: 320 g/ha, 3 weeks after application
Procedure, shortened: as §2

SMILES	herbicidal effect on D (Leptochloa chinensis), grade 0-5 (Leptochloa chinensis)	Q: Galium spurium, herbicidal effect (criteria 0-5) (Galium spurium)	f: beet, effect grade on crop (beet)	N: Amaranthus retroflexus, herbicidal effect grade (Amaranthus retroflexus)	Herbicidal effect grade, B: Scirpus juncoides (Scirpus juncoides)	d: soybean, effect on crop (criteria 0-5) (soybean)	H: Echinochloa crus-galli var. crus-galli, herbicidal effect grade [1]	P: Stellaria media, herbicidal effect (criteria 0-5) (Stellaria media)	M: Abutilon theophrasti, herbicidal effect (criteria 0-5) (Abutilon theophrasti)	R: Veronica persica, herbicidal effect (criteria 0-5) (Veronica persica)	O: Chenopodium album, herbicidal effect (criteria 0-5) (Chenopodium album [2])	b: directly sowed rice plant, effect on crop (criteria 0-5) (rice plant)	K: Lolium multiflorum Lam., herbicidal effect grade (Lolium multiflorum Lam.)	b: directly sowed rice plant, effect grade on crop (rice)	F: Digitaria ciliaris, herbicidal effect grade (Digitaria ciliaris)	J: Alopecurus myosuroides, herbicidal effect (criteria 0-5) (Alopecurus myosuroides)	herbicidal effect on E, grade 0-5 (Cyperus difformis)	O: Chenopodium album, herbicidal effect grade (Chenopodium album [3])	G: Setaria viridis, herbicidal effect (criteria 0-5) (Setaria viridis)
CON=C(C)CC1CC(OC(=O)C(C)(C)c2ccc(Cl)cc2)=C(c2c(C)cc(C)cc2C)C1=O (stereo not shown) [1-148]	5 (Herbicidal ratio of 90% or more (almost completely withered))	3 (Herbicidal ratio of 40% or higher and lower than 70%)	0 (Herbicidal ratio of 5% or lower (almost no effect))	2 (Herbicidal ratio of 20% or higher and lower than 40%)	4 (Herbicidal ratio of 70% or higher and lower than 90%)	3 (Herbicidal ratio of 40% or higher and lower than 70%)	5 (Herbicidal ratio of 90% or more (almost completely withered))	3 (Herbicidal ratio of 40% or higher and lower than 70%)	4 (Herbicidal ratio of 70% or higher and lower than 90%)	3 (Herbicidal ratio of 40% or higher and lower than 70%)	1 (Herbicidal ratio of 5% or higher and lower than 20%)	5 (Herbicidal ratio of 90% or more (almost completely withered))	5 (Herbicidal ratio of 90% or more (almost completely withered))	5 (Herbicidal ratio of 90% or more (almost completely withered))	5 (Herbicidal ratio of 90% or more (almost completely withered))	5 (Herbicidal ratio of 90% or more (almost completely withered))	4 (Herbicidal ratio of 70% or higher and lower than 90%)	0 (Herbicidal ratio of 5% or lower (almost no effect))	5 (Herbicidal ratio of 90% or more (almost completely withered))
CON=C(C)CC1CC(OC(=O)c2ccc(C(F)(F)F)cc2)=C(c2c(C)cc(C)cc2C)C1=O (stereo not shown) [1-149]	5 (Herbicidal ratio of 90% or more (almost completely withered))	3 (Herbicidal ratio of 40% or higher and lower than 70%)	0 (Herbicidal ratio of 5% or lower (almost no effect))	4 (Herbicidal ratio of 70% or higher and lower than 90%)	5 (Herbicidal ratio of 90% or more (almost completely withered))	2 (Herbicidal ratio of 20% or higher and lower than 40%)	5 (Herbicidal ratio of 90% or more (almost completely withered))	3 (Herbicidal ratio of 40% or higher and lower than 70%)	4 (Herbicidal ratio of 70% or higher and lower than 90%)	2 (Herbicidal ratio of 20% or higher and lower than 40%)	2 (Herbicidal ratio of 20% or higher and lower than 40%)	5 (Herbicidal ratio of 90% or more (almost completely withered))	5 (Herbicidal ratio of 90% or more (almost completely withered))	5 (Herbicidal ratio of 90% or more (almost completely withered))	5 (Herbicidal ratio of 90% or more (almost completely withered))	5 (Herbicidal ratio of 90% or more (almost completely withered))	5 (Herbicidal ratio of 90% or more (almost completely withered))	0 (Herbicidal ratio of 5% or lower (almost no effect))	5 (Herbicidal ratio of 90% or more (almost completely withered))
CON=C(C)CC1CC(OC(=O)N2CCN(C)CC2)=C(c2c(C)cc(C)cc2C)C1=O (stereo not shown) [1-152]	5 (Herbicidal ratio of 90% or more (almost completely withered))	0 (Herbicidal ratio of 5% or lower (almost no effect))	0 (Herbicidal ratio of 5% or lower (almost no effect))	0 (Herbicidal ratio of 5% or lower (almost no effect))	0 (Herbicidal ratio of 5% or lower (almost no effect))	1 (Herbicidal ratio of 5% or higher and lower than 20%)	0 (Herbicidal ratio of 5% or lower (almost no effect))	0 (Herbicidal ratio of 5% or lower (almost no effect))	4 (Herbicidal ratio of 70% or higher and lower than 90%)	0 (Herbicidal ratio of 5% or lower (almost no effect))	0 (Herbicidal ratio of 5% or lower (almost no effect))	5 (Herbicidal ratio of 90% or more (almost completely withered))	2 (Herbicidal ratio of 20% or higher and lower than 40%)	0 (Herbicidal ratio of 5% or lower (almost no effect))	0 (Herbicidal ratio of 5% or lower (almost no effect))	5 (Herbicidal ratio of 90% or more (almost completely withered))	5 (Herbicidal ratio of 90% or more (almost completely withered))	0 (Herbicidal ratio of 5% or lower (almost no effect))	5 (Herbicidal ratio of 90% or more (almost completely withered))
C=CCN(CC=C)C(=O)OC1=C(c2c(C)cc(C)cc2C)C(=O)C(CC(C)=NOC)C1 (stereo not shown) [1-153]	5 (Herbicidal ratio of 90% or more (almost completely withered))	3 (Herbicidal ratio of 40% or higher and lower than 70%)	0 (Herbicidal ratio of 5% or lower (almost no effect))	0 (Herbicidal ratio of 5% or lower (almost no effect))	3 (Herbicidal ratio of 40% or higher and lower than 70%)	1 (Herbicidal ratio of 5% or higher and lower than 20%)	0 (Herbicidal ratio of 5% or lower (almost no effect))	0 (Herbicidal ratio of 5% or lower (almost no effect))	4 (Herbicidal ratio of 70% or higher and lower than 90%)	0 (Herbicidal ratio of 5% or lower (almost no effect))	0 (Herbicidal ratio of 5% or lower (almost no effect))	5 (Herbicidal ratio of 90% or more (almost completely withered))	4 (Herbicidal ratio of 70% or higher and lower than 90%)	1 (Herbicidal ratio of 5% or higher and lower than 20%)	5 (Herbicidal ratio of 90% or more (almost completely withered))	5 (Herbicidal ratio of 90% or more (almost completely withered))	4 (Herbicidal ratio of 70% or higher and lower than 90%)	0 (Herbicidal ratio of 5% or lower (almost no effect))	5 (Herbicidal ratio of 90% or more (almost completely withered))
